# From article PMC11403612, “Preparation and Preclinical Characterization of a Simple Ester for Dual Exogenous Supply of Lactate and Beta-hydroxybutyrate” (Journal of Agricultural and Food Chemistry, 2024)
# Key:
# [1] = tested on: N-L-lactoyl-phenylalanine (Lac-Phe); test: Plasma N-L-lactoyl-phenylalanine after oral LaKe in rats; type: in vivo, Sprague–Dawley rats; conditions: 4.5 g/kg oral
# Method: Male Sprague–Dawley rats (300–350g, Taconic, Ry, Denmark) were kept for acclimatization at a constant temperature of 23 °C with a 12 h light-dark cycle and with unlimited access to food and water. All animal handling was in accordance with national guidelines in Denmark and the guidelines from the Directive 2010/63/EU of the European Parliament on the protection of animals used for scientific purposes, and all experiments conformed to Danish Law (Act. No. 1306 of 23/11/2007). The experimental protocol was approved by the Danish Animal Expectorate (2018-15-0201-01475).
# The rats were randomly selected to receive either LaKe (n = 8) or placebo (n = 8). […]
# Concentrations of non-esterified free fatty acids (FFA) were measured using a NEFA-HR(2) kit (Wako, Chemicals Gmbh, Germany). Absorbance was measured by spectrometry (PHERAstar FS, BMG LABTECH, […]
# Quantification of N-L-lactoyl phenylalanine (Lac-Phe) by LC-MS/MS […]
# Pure calibrant samples were prepared from an authentic standard compound (N-L-lactoyl phenylalanine), using the plasma sample preparation method at concentrations equivalent to […] in the original sample. The lower limit of quantification for N-L-lactoyl phenylalanine (Lac-Phe) quantification was estimated to 10 nM. […]
# [2] = Stability of LaKe upon storage (neat, GC-FID); type: physicochemical; conditions: ambient temperature
# Method: Following preparation, LaKe was analyzed by GC-FID. Subsequently, LaKe was stored neat at either −15, 0, and 20 °C and the samples were reanalyzed after 24 months. Table S1 (Supporting Information) contains the corresponding stability data and the GC-FID conditions applied.
smiles,measurement,setting,value
"CC(O)CCOC(=O)C(C)O (centres unmarked) [LaKe, 3-hydroxybutyl 2-hydroxypropanoate]",change in plasma Lac-Phe,[1],increase
same,stability to storage in the neat state,[2],at least 2 years
